# Measurements published in patent publication US20230132823A1, “BI-FUNCTIONAL COMPOUNDS AND METHODS FOR TARGETED UBIQUITINATION OF ANDROGEN RECEPTOR” (MONTELINO THERAPEUTICS, INC., priority 2020, published 2023).
# Key:
# PC3 = PC3 cell proliferation; assay type: cell-based, human; conditions: AR-negative cell line; 1 μM
# Description: The human prostate cancer cell line, 22Rv1 has been reported to express a high level of AR-V7. Thus, 22Rv1 was seeded at 50,000 cells/well on a 24-well plate in quadruplicates and treated with test compound in concentrations ranging up to 20 μM for four days. Standard culture media was RPMI-1640 supplemented with 10% fetal bovine serum. The test compound initially was dissolved in DMSO at 50 mM. This stock solution was then diluted as needed for the indicated concentrations. At the end of the four-day period, cells were harvested using 1% trypsin and counted using an automated cell counter.
# Cell Culture. Human CaP cell lines, LNCaP, 22Rv1, VCaP, PC3, and DU145 are obtained from the American Type Culture Collection (ATCC) and maintained in the standard culture media: RPMI-1640 supplemented with 10% fetal bovine serum (FBS). LNCaP, 22Rv1, and VCaP are androgen-responsive cell lines, while PC3 and DU145 are not. To establish SAT resistant CaP cell lines, LNCaP, 22Rv1, and VCaP are treated continuously with 10-50 μM abiraterone, apalutamide, darolutamide, or enzalutamide. […] Mycoplasma contamination is also assessed using a PCR based detection system.
# 22Rv1-Enz^R = 22Rv1-Enz^R cell proliferation assay, GIC50 (Experimental Example 4); assay type: cell-based; conditions: Homo sapiens; 6-day culture, cell media changed every 24 hours
# Description: Selected compounds were tested in the human prostate cancer cell line, 22Rv1-Enz^R as described in Geun Taek Lee et al., Molecular Cancer Therapeutics, 20:490-9 (2021). These procedures are similar to that described in Experimental Example 1, above, except that the assay conditions are a 6-day culture with cell media changed every 24 hours.
# In the Table: (+)—GIC50<20 μM; (++)—GIC50<10 μM; (+++)—GIC50<1 μM.
# AR-FL and AR-V7 mRNA = assay: mRNA levels of AR-FL and AR-V7 (quantitative PCR); assay type: cell-based, human
# VCaP = VCaP cell proliferation; assay type: cell-based, human; conditions: androgen-responsive cell line; 1 μM
# [1] = target: T1, estrogen receptor alpha (ER) (Homo sapiens, UniProt P03372); assay: Immunoblot of ER alpha in 22Rv1 cells; assay type: cell-based; conditions: 22Rv1, 24 hours, up to 10 μM
# T1 construct: progesterone receptor (PR) a and b, and estrogen receptor alpha (ER); endogenous in cells; host or cells: 22Rv1
# T1 sequence (P03372 1-595): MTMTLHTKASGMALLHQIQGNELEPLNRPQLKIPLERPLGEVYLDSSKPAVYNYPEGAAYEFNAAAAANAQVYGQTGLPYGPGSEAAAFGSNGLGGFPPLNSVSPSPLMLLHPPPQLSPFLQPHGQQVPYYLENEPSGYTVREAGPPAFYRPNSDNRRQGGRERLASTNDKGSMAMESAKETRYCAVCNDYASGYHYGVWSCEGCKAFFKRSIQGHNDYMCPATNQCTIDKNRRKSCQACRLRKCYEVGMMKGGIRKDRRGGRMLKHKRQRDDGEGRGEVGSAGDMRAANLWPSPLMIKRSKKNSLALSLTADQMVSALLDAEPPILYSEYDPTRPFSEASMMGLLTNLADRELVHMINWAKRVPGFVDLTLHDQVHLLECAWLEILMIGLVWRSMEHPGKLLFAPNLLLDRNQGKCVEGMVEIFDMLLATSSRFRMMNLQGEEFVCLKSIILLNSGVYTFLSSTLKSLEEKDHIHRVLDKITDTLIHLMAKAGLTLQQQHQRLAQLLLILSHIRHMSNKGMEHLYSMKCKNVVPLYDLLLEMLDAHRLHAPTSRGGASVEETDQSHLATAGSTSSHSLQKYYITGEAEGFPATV
# Description: Cell Culture. Human CaP cell lines, LNCaP, 22Rv1, VCaP, PC3, and DU145 are obtained from the American Type Culture Collection (ATCC) and maintained in the standard culture media: RPMI-1640 supplemented with 10% fetal bovine serum (FBS). LNCaP, 22Rv1, and VCaP are androgen-responsive cell lines, while PC3 and DU145 are not. To establish SAT resistant CaP cell lines, LNCaP, 22Rv1, and VCaP are treated continuously with 10-50 μM abiraterone, apalutamide, darolutamide, or enzalutamide. After 3-6 months, stable cell lines are established and designated as LNCaP-Abi^R, LNCaP-Apa^R, LNCaP-Daro^R, LNCaP-Enz^R, VCaP-Abi^R, VCaP-Apa^R, VCaP-Daro^R, VCaP-Enz^R, 22Rv1-Abi^R, 22Rv1-Apa^R, 22Rv1-Daro^R and 22Rv1-Enz^R. Unless otherwise specified, the standard culture media for these SAT-resistant cell lines included 10 μM of their respective SAT. For the proteasome inhibitor study, the inhibitors MG132 and Epoxomicin are used. The E3 ligase inhibitors Heclin, Nutlin 3a, Thalidomide, and VH298 are used. […] Mycoplasma contamination is also assessed using a PCR based detection system.
# Immunoblot Analysis. […] Cell lysates are then centrifuged and protein in the supernatant is quantified. […] Following the incubation with appropriate secondary antibody, immunoblots are analyzed using SuperSignal West Femto Maximum Sensitivity Substrate (ThermoFisher).
# 22Rv1 = 22Rv1 cell proliferation assay (Experimental Example 3); assay type: cell-based, human; conditions: for 22Rv1 cell count, % of control: 6 days
# Description: The human prostate cancer cell line, 22Rv1 has been reported to express a high level of AR-V7. […] Standard culture media was RPMI-1640 supplemented with 10% fetal bovine serum. The test compound initially was dissolved in DMSO at 50 mM. This stock solution was then diluted as needed for the indicated concentrations. […]
# Cell Culture. Human CaP cell lines, LNCaP, 22Rv1, VCaP, PC3, and DU145 are obtained from the American Type Culture Collection (ATCC) and maintained in the standard culture media: RPMI-1640 supplemented with 10% fetal bovine serum (FBS). LNCaP, 22Rv1, and VCaP are androgen-responsive cell lines, while PC3 and DU145 are not. To establish SAT resistant CaP cell lines, LNCaP, 22Rv1, and VCaP are treated continuously with 10-50 μM abiraterone, apalutamide, darolutamide, or enzalutamide. After 3-6 months, stable cell lines are established and designated as LNCaP-Abi^R, LNCaP-Apa^R, LNCaP-Daro^R, LNCaP-Enz^R, VCaP-Abi^R, VCaP-Apa^R, VCaP-Daro^R, VCaP-Enz^R, 22Rv1-Abi^R, 22Rv1-Apa^R, 22Rv1-Daro^R and 22Rv1-Enz^R. Unless otherwise specified, the standard culture media for these SAT-resistant cell lines included 10 μM of their respective SAT. For the proteasome inhibitor study, the inhibitors MG132 and Epoxomicin are used. The E3 ligase inhibitors Heclin, Nutlin 3a, Thalidomide, and VH298 are used. Cell lines obtained from ATCC are confirmed by checking their morphology using optical microscopy, establishing baselines for cell proliferation, verifying species of origin using isoenzymology, and characterizing the cell's DNA fingerprint using short tandem repeat (STR) profiling. Mycoplasma contamination is also assessed using a PCR based detection system.
structure (smiles),measurement,setting,value
"Cc1ncsc1-c1ccc([C@H](C)NC(=O)[C@@H]2C[C@@H](O)CN2C(=O)[C@@H](NC(=O)CCCCNC(=O)COc2c(-c3csc(N4CCOCC4)n3)ccc(F)c2F)C(C)(C)C)cc1 [Example 16, (2S,4R)-1-((S)-2-(5-(2-(2,3-difluoro-6-(2-morpholinothiazol-4-yl)phenoxy)acetamido)pentanamido)-3,3-dimethylbutanoyl)-4-hydroxy-N-((S)-1-(4-(4-methylthiazol-5-yl)phenyl)ethyl)pyrrolidine-2-carboxamide]",effect on PC3 cells,PC3,not affected
same,IC50,22Rv1-Enz^R,< 1000 nM
same,effect on mRNA levels of AR-FL and AR-V7,AR-FL and AR-V7 mRNA,no major effect
same,effect on proliferation of VCaP,VCaP,inhibits the proliferation
same,effect on expression level of estrogen receptor alpha (ER),[1],no visible effect
same,"22Rv1 cell count, % of control",22Rv1; 0.01 μM,approximately 90 % of control
same,"22Rv1 cell count, % of control",22Rv1; 0.1 μM,~70 % of control
same,"22Rv1 cell count, % of the control (side to side cell line comparison)",22Rv1; 1 μM,approximately 40 % of the control
same,"22Rv1 cell count, % of control",22Rv1; 1 μM,~65 % of control
